According to US9199200B2, “Submerged membrane bioreactor system and biological methods for removing bisphenol compounds from municipal wastewater” (Centre de Recherche Industrielle de Québec (CRIQ), priority 2010, dated 2015):

Assay: Sorption time course of BPA on activated and inactivated sludge in shake flasks
Format: physicochemical
Conditions: average over the first 30 min; initial 5.0 or 10 mg/L; 15 g TSS/L
Protocol: To elucidate the plausible mechanisms of the biological removal of the bisphenol compounds, the removal of BPA was tested (adsorption on the biomass versus biological oxidation), and additional experiments are carried out in Erlenmeyer shake flasks containing either activated sludge or inactivated sludge in the presence of BPA. The sludge used for the tests is withdrawn from the SMBR unit. Prior to BPA addition in activated sludge sample, sludge is initially centrifuged at 8000 rpm at 4° C. for 10 min and softly washed. The inactivated sludge is prepared by subjecting sludge samples to a sterilization by adding 1.0 mL HgSO4 (20 g/L) to 200 mL of sludge. Then, the sterilized and centrifuged sample sludge is placed in conical flasks and shaken at 150 rpm at 22±2° C. for 2 h, and then centrifuged at 8000 rpm at 4° C. for 10 min. Different concentrations of BPA (0.45 to 18.2 mg/L) are added in the same mass of sludge (3.0 g of sludge diluted to 200 mL with milli-Q water). […] The flasks are shaken at 150 rpm at 22±2° C., pH=7±0.5 for 24 h and samples are taken in regular time intervals, and the amount of BPA adsorbed is determined by measuring the residual BPA concentrations in solution The same assay is carried out using inactivated sludge. […]

CC(C)(c1ccc(O)cc1)c1ccc(O)cc1 [BPA, 2,2-Bis(4-hydroxyphenyl)propane]
BPA removed by physical sorption: 69%
